Assay results taken from ChEMBL document CHEMBL1201862, “PubChem BioAssay data set” (2004).
Calls of active or inactive are those of the source.

What was measured:
[1] = NIH3T3 cell viability loss – ATP luminescence, mouse fibroblasts, counter-screen, dose response (AID 2010); format: functional, cell-based;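 note: cells exposed to compound for about 90 hours before reading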
[2] = Trypanosoma cruzi growth suppression in host cells – NIH3T3 host cells, beta-gal luminescence, confirmation (AID 2044); format: functional, cell-based;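 note: intracellular parasites grown in NIH/3T3 mouse fibroblasts as host cells; luminescent beta-galactosidase reporter signal from transgenic T. cruzi replicating inside host cells; inhibitors lower the luminescence signal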
[3] = biological target: T1, Ubiquitin-conjugating enzyme E2 N (Homo sapiens, UniProt P61088); format: functional;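 note: Dose-response confirmation in a TR-FRET assay detecting UBC13-driven polyubiquitin chain formation, inhibition measured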
T1 sequence (P61088 whole entry): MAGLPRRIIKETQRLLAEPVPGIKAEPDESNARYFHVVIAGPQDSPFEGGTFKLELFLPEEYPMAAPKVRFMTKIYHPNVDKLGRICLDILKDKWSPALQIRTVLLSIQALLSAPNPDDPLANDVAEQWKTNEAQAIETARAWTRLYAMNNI

INS1 = assay: INS-1E survival protection against cytokine death – cell-based, luminescence, retest, dose response (AID 449756); format: functional; settings: Rattus norvegicus;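 note: cell death triggered by IL-1 beta plus TNF-alpha plus IFN-gamma mixture; protective hits raise ATP signal compared with cytokine alone wells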
[4] = Cytotoxicity screening for potential Inhibitors of Bacterial Capsule Biogenesis. [Related pubchem assays (depositor defined):AID488970]; format: functional
[5] = biological target: T2, Carboxy-terminal domain RNA polymerase II polypeptide A small phosphatase 1 (Homo sapiens, UniProt Q9GZU7); assay: CTDSP1 inhibitors, concentration-response, biochemical, absorbance readout, ultra-high-throughput screen actives (AID 540297); format: functional
T2 sequence (Q9GZU7 whole entry): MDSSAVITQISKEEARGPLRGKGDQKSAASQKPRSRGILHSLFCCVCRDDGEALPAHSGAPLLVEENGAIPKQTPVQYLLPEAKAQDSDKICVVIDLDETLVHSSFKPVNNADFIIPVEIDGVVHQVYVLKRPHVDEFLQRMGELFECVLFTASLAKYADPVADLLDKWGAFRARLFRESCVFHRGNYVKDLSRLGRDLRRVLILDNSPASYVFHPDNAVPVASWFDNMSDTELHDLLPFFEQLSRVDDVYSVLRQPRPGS

[6] = biological target: T3, Polyadenylate-binding protein 1 (Homo sapiens, UniProt P11940); assay: PABP inhibition in translation initiation, SAR follow-up (AID 435018); format: functional
[7] = biological target: T4, Long-chain-fatty-acid--AMP ligase FadD28 (Mycobacterium tuberculosis, UniProt P9WQ59); assay: Fluorescence polarization aasay to screen for inhibitors that compete for the binding of FadD28 to a bisubstrate Measured in Biochemical System Using Plate Reader - 2147-01_Inhibitor_Dose_CherryPick_Activity.; format: functional, Mycobacterium tuberculosis H37Rv
T4 sequence (P9WQ59 whole entry): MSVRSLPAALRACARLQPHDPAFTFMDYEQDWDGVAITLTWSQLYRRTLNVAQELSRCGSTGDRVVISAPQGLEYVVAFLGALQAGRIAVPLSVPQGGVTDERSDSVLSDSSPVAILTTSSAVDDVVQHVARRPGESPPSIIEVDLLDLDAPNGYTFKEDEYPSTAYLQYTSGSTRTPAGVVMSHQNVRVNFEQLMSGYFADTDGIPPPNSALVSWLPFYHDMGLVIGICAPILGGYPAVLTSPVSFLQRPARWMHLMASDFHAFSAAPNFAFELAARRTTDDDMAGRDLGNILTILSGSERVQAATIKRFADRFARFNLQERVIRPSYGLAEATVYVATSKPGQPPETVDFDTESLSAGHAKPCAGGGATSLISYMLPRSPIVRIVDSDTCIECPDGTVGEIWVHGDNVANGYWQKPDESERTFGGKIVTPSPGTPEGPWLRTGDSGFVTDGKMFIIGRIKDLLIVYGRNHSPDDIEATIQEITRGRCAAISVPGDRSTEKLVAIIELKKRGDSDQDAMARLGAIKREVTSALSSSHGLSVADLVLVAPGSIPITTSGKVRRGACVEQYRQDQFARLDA

[8] = biological target: T5, Eukaryotic translation initiation factor 4H (Homo sapiens, UniProt Q15056); assay: inhibitors of translation initiation factor eIF4H – SAR follow-up (AID 435011); format: functional
BJ [9] = assay: BJ-TERT-LT-ST fibroblast viability loss – cell-based, RAS-independent, luminescence, dose response (AID 1935); format: functional; settings: Homo sapiens;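 note: BJ fibroblasts immortalized with TERT plus LT and ST oncogenes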
[10] = alpha-synuclein stem-loop luciferase translation blockers – H4 neuroglioma cells, luminescence, confirmation (AID 1988); format: functional, cell-based
[11] = HEK-293T viability loss after treatment – luminescence, T-cell screen hits, cytotoxicity control for TCR NF-kB inhibitor project, dose response (AID 489026); format: functional, cell-based;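 note: cells exposed to compound about 14 hours before the viability readout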
[12] = DRD fibroblast viability loss – cell-based, non-viral oncogenic, luminescence, dose response (AID 1934); format: functional; settings: Homo sapiens
BJ [13] = assay: BJ-TERT fibroblast viability loss – cell-based, RAS-independent, luminescence, dose response (AID 1933); format: functional; settings: Homo sapiens
J774.A1 = assay: Confirmation of image-based Screening Assay for Inhibitors of Phagocytosis. [Related pubchem assays (depositor defined):AID1029, AID1643]; format: functional, cell-based; settings: Mus musculus
[14] = luciferase reporter signal suppression in cells – H4 neuroglioma cells, luminescence, dose response (AID 1990); format: functional, cell-based
[15] = Luminescence Cell-Based Dose Response HTS to Identify Inhibitors of 5'UTR Stem-Loop Driven Prion Protein mRNA Translation in H4 Neuroglioblastoma Cells. [Related pubchem assays: 1827 (Project Summary), 1813 (Primary HTS)]; format: functional
BJ [16] = assay: cells; format: functional, cell-based; settings: Homo sapiens
[17] = biological target: T6, Eukaryotic translation initiation factor 2-alpha kinase 3 (Homo sapiens, UniProt Q9NZJ5); assay: Dose response cell-based high-throughput screening assay to measure PERK inhibition. [Related pubchem assays: 1416 ]; format: functional
[18] = biological target: T6, Eukaryotic translation initiation factor 2-alpha kinase 3; assay: Counterscreen assay for PERK inhibitors: Dose response cell-based high throughput screening assay to measure inhibition of PERK at 6 hours. [Related pubchem assays: 1522, 1416 ]; format: functional
[19] = biological target: Intestinal-type alkaline phosphatase (Homo sapiens, UniProt P09923); assay: Dose Response confirmation of uHTS hits from a small molecule inhibitors of human intestinal alkaline phosphatase via a luminescent assay. [Related pubchem assays (depositor defined):AID2544, AID2574]; format: functional
[20] = biological target: Cyclin-dependent kinase 5/CDK5 activator 1 (Homo sapiens, UniProt Q00535); assay: blockade of human CDK5 activity – biochemical, cherry-picked samples, set 2, dose response (AID 504545)
[21] = biological target: NACHT, LRR and PYD domains-containing protein 1 (Homo sapiens, UniProt Q9C000); assay: NALP1 inhibitors in yeast, dose response, luminescent (AID 488860); format: functional
Saccharomyces cerevisiae = assay: S. cerevisiae Caspase-1/ASC signal blockers IC50, NALP1 inhibitor project selectivity test (AID 488863); format: functional, organism-based
[22] = biological target: T3, Polyadenylate-binding protein 1; assay: blockers of PABP interaction with poly(A) – biochemical, fluorescence polarization, […] (AID 2014)
[23] = biological target: T5, Eukaryotic translation initiation factor 4H; assay: eIF4H binding inhibition – biochemical, uHTS, fluorescence polarization, translation initiation inhibitor project, primary screen (AID 2012)

T6 sequence (Q9NZJ5 whole entry): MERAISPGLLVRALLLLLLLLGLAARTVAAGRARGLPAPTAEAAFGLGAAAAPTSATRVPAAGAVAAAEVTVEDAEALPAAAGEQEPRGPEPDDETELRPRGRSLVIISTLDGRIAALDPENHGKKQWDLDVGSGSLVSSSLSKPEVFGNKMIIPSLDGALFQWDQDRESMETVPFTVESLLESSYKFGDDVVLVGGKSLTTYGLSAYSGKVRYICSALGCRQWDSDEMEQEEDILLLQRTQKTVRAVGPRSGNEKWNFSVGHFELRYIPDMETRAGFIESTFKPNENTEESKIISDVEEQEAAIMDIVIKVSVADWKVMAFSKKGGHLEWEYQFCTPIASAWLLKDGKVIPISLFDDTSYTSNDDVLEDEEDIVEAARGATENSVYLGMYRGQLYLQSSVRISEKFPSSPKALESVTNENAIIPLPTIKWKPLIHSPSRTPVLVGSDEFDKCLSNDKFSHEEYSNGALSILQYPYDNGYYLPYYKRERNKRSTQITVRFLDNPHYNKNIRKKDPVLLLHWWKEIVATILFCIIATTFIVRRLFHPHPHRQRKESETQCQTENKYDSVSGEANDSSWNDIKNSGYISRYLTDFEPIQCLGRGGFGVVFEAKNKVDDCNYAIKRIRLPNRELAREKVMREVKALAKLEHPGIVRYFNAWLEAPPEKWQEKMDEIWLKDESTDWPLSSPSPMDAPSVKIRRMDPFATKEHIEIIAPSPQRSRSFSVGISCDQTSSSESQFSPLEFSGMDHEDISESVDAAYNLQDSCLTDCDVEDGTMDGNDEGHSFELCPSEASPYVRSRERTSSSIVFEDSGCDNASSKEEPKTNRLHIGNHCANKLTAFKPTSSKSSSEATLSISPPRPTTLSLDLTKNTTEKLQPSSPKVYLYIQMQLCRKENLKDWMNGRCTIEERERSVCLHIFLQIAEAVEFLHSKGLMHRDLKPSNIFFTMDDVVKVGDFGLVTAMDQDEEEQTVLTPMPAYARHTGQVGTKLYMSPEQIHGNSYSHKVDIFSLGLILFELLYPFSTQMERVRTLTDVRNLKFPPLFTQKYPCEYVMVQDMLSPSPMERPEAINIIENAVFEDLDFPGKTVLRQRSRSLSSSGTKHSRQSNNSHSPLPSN
T3 sequence (P11940 whole entry): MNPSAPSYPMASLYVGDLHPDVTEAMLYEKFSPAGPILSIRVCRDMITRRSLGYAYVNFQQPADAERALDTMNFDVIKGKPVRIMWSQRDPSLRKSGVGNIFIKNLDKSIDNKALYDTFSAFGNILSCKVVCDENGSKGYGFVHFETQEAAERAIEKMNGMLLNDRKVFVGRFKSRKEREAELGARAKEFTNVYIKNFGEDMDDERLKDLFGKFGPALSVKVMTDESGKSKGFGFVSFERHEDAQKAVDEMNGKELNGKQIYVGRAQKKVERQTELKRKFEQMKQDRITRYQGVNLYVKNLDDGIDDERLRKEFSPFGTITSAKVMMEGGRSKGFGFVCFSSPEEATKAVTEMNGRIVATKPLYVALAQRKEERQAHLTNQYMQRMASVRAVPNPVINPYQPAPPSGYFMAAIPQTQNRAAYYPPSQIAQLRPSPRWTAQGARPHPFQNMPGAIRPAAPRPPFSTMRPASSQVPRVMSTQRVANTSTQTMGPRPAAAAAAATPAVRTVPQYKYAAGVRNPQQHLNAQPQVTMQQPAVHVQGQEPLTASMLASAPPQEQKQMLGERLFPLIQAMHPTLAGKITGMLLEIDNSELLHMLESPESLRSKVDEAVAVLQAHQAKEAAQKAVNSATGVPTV
Sequence of Cyclin-dependent kinase 5/CDK5 activator 1 (Q00535 whole entry, the tested form may be a part): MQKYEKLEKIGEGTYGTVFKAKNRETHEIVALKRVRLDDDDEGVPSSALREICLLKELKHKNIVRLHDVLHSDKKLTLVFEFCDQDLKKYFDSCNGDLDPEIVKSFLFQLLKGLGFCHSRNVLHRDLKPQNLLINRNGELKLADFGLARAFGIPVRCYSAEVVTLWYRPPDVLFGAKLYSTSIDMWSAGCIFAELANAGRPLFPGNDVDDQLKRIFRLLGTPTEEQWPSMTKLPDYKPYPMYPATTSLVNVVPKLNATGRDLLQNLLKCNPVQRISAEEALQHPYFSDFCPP
Sequence of Cyclin-dependent kinase 5/CDK5 activator 1 (Q15078 whole entry, further chain, the tested form may be a part): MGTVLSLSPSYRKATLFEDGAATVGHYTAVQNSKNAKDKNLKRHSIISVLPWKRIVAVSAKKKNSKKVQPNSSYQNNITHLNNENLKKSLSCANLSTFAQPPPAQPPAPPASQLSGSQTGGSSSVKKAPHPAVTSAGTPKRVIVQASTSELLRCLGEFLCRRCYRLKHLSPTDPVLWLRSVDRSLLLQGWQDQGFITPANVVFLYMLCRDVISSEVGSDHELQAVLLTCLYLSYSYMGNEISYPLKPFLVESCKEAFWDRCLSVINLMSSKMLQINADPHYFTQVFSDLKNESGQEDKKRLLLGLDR
Sequence of NACHT, LRR and PYD domains-containing protein 1 (Q9C000 1-1212 limits assumed): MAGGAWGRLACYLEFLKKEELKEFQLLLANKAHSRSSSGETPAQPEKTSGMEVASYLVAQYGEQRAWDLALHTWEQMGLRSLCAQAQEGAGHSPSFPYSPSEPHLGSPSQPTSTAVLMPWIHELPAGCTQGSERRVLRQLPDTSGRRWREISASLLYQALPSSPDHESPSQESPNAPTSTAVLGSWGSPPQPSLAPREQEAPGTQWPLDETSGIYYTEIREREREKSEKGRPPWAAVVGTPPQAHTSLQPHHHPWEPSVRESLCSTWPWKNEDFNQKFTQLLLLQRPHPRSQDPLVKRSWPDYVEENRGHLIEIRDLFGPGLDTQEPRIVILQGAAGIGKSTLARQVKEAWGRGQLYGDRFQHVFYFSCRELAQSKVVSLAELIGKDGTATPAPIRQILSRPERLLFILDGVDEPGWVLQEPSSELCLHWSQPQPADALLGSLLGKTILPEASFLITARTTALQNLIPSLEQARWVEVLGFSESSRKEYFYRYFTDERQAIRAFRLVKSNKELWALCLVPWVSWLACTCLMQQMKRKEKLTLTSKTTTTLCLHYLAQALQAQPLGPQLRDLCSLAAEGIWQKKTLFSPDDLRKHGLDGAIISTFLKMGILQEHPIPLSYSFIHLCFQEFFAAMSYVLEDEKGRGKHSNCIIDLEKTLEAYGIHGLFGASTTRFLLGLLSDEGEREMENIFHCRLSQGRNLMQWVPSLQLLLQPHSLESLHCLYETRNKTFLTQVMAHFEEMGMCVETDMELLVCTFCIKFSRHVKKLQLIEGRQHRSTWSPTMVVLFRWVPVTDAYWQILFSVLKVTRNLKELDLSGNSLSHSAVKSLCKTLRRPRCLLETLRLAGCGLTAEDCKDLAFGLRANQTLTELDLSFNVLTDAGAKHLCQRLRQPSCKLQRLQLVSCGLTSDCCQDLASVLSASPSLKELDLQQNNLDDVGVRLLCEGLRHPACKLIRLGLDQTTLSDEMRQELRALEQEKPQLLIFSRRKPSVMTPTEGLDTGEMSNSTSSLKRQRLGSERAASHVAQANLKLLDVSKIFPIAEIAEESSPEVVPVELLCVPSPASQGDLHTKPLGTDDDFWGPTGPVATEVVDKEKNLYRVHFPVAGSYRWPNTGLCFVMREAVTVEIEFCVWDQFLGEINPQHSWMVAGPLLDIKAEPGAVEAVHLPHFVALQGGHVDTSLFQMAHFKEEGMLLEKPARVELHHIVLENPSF
Sequence of NACHT, LRR and PYD domains-containing protein 1 (Q9C000 1213-1473 limits assumed): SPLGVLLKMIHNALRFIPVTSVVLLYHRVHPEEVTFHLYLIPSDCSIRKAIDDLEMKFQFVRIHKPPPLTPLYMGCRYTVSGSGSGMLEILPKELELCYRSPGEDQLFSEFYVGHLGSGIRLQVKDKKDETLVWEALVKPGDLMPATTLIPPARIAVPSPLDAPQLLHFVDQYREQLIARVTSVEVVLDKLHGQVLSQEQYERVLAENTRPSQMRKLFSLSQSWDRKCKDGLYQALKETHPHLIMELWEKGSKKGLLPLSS
Sequence of Intestinal-type alkaline phosphatase (P09923 whole entry): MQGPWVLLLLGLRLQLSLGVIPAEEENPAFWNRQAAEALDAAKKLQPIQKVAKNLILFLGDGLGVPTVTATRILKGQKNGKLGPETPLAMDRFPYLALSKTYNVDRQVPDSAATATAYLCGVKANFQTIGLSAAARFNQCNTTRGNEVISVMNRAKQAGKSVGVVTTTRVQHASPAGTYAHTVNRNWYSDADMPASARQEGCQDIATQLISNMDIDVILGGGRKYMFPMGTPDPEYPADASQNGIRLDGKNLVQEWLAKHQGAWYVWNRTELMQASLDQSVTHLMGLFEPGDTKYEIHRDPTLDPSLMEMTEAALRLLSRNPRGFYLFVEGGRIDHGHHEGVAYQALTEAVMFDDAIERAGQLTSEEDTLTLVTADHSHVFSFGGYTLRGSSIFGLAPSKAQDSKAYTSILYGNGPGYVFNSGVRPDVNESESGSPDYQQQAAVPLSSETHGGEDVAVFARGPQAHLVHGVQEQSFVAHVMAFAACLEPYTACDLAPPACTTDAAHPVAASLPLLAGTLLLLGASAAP

For `N=C(N)N/N=C/c1ccc(OCc2ccccc2)cc1`, the EC50 [1] was > 60 µM (not active), the EC50 [2] was 0.92 µM (active) and the IC50 [3] was > 20 µM (inactive). For the same compound, the AC50 (INS1) was 6.57 µM (active) and the CC50 [4] was 10.4 µM (active).

With `Cc1cccc(NC(=O)CN2C(=O)N/C(=C\c3ccccc3OCc3ccc(C(=O)O)cc3)C2=O)c1` the IC50 [5] was 6.07 µM (active), the IC50 [6] was 77.6 µM (active) and the AC50 [7] was 9.77 µM (active). The IC50 [8] was 17.5 µM (active).

For `CCOC(=O)Nc1nc(-c2ccccc2)c(C(=O)c2ccccc2)s1`, the EC50 (BJ [9]) was 4.12 µM (inconclusive), the EC50 [10] was 0.198 µM (active) and the IC50 [11] was 68.3 µM (inactive). For the same compound, the EC50 [12] was 12.3 µM (inconclusive), the EC50 (BJ [13]) was 7.17 µM (inconclusive) and the IC50 (J774.A1) was 0.215 µM (active). The EC50 [14] was 1.41 µM (active), the EC50 [15] was 1.38 µM (active) and the EC50 (BJ [16]) was 17.1 µM (inconclusive).

For `CCCn1cnc2c(S)nc(N)nc21`, the EC50 [17] was > 55.7 µM (not active) and the EC50 [18] was > 55.7 µM (not active).

In the case of `Cc1[nH]n(-c2nc(-c3ccccc3F)cc(=O)[nH]2)c(=O)c1CCO`, the IC50 [19] is reported as 1.07 µM (active).

With `CC(C)(C)C(=O)c1sc(Nc2ccccc2)nc1N` the AC50 [20] was 23.4 µM (active).

For `CCCCC(=O)Nc1ccc(C(=O)NNC(=S)NC(=O)c2ccco2)cc1`, the IC50 [21] was 25.7 µM (active) and the IC50 (Saccharomyces cerevisiae) was 18.8 µM (active).

For `C[N+]1(C)[C@@H]2CC[C@H]1CC(OC(=O)[C@@H](CO)c1ccccc1)C2` (stereo partly specified), the IC50 [22] was 4.91 µM (active) and the IC50 [23] was > 100 µM (inactive).
